Measurements: patent US10106578B2, “Melanocortin-1 receptor-specific linear peptides” (Palatin Technologies, Inc., priority 2012, dated 2018)
pEC50, pKi: −log10 of the molar value. Where a SMILES comes first, the peptide text is derived from it. [ ]: non-standard residue; d: D form. Nle = CCCC[C@H](N)C(=O)O; Sar = CNCC(=O)O

What was measured:
hMCR-1 = target: T1, hMCR-1 (Homo sapiens, UniProt Q01726); test: Assay for agonist activity: cAMP accumulation in HBL human melanoma cells; format: cell-based; conditions: for Emax: compared to reference agonist NDP-α-MSH, read-out: MC-1 Emax (average; cAMP HBL); for pEC50: read-out: MC-1 EC50 (average; cAMP HBL)
T1 construct: endogenous in cells; host or cells: HBL human melanoma cell line
T1 sequence (Q01726 whole entry): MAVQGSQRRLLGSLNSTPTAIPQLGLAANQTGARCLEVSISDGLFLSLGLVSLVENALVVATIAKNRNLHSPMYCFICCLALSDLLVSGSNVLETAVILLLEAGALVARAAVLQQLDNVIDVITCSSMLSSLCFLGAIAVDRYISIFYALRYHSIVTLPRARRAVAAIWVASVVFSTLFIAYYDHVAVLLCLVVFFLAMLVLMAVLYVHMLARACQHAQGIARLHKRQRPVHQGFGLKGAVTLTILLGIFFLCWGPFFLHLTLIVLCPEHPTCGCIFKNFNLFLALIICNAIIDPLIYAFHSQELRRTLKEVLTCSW
Excerpt: Accumulation of intracellular cAMP was examined as a measure of the ability of the peptides of the present invention to elicit a functional response in a human melanoma cell line, HBL, that express hMCR-1 (see Kang, L., et al., “A selective small molecule agonist of melanocortin-1 receptor inhibits lipopolysaccharide-induced cytokine accumulation and leukocyte infiltration in mice,” J. Leuk. Biol. 80:897-904 (2006)) or HEK-293 cells that express hMCR-4. Confluent HBL cells that express hMCR-1 or HEK-293 cells that express recombinant hMCR-4 were detached from culture plates by incubation in enzyme-free cell dissociation buffer. Dispersed cells were suspended in Earle's Balanced Salt Solution containing 10 mM HEPES (pH 7.5), 1 mM MgCl2, 1 mM glutamine, 0.5% albumin and 0.3 mM 3-isobutyl-1-methyl-xanthine (IBMX), a phosphodiesterase inhibitor. The cells were plated in 96-well plates at a density of 0.4×10^5 cells per well for HBL cells and 0.5×10^5 cells per well for HEK-293 cells and pre-incubated for 10 minutes. Cells were exposed for 15 minutes at 37° C. to peptides of the present invention dissolved in DMSO (final DMSO concentration of 1%) at a concentration range of 0.05-5000 nM in a total assay volume of 200 μL. NDP-α-MSH was used as the reference agonist. cAMP levels were determined by an HTRF® cAMP cell-based assay system from Cisbio Bioassays utilizing cryptate-labeled anti-cAMP and d2-labeled cAMP, with plates read on a Perkin-Elmer Victor plate reader at […]. Data analysis was performed by nonlinear regression analysis with Graph-Pad PRISM® software. Maximum efficacy (Emax) values were determined for each test peptide of the present invention, compared to that achieved by the reference melanocortin agonist NDP-α-MSH.
(§1) Peptides of the following structures were synthesized and purified as described in Section 5 above, with the resulting peptide having the structure depicted. After synthesis and purification, the foregoing peptide was tested as described in Section 8 above, and average MCR-1 and MCR-4 Ki values determined as indicated. All Ki values were determined using [I^125]-NDP-α-MSH. All results are expressed in nM except for Emax values, which are percentage values.

hMCR-4 = target: T2, hMCR-4 (Homo sapiens, UniProt P32245); test: Competitive inhibition binding assay using [I125]-NDP-α-MSH, hMCR-4 membranes; conditions: HEK-293 membranes, recombinant human MCR-4, [I125]-NDP-α-MSH; read-out: MC-4 Ki (average)
T2 construct: expressed in transfected cells; host or cells: HEK-293 cells (membrane homogenates)
T2 sequence (P32245 whole entry): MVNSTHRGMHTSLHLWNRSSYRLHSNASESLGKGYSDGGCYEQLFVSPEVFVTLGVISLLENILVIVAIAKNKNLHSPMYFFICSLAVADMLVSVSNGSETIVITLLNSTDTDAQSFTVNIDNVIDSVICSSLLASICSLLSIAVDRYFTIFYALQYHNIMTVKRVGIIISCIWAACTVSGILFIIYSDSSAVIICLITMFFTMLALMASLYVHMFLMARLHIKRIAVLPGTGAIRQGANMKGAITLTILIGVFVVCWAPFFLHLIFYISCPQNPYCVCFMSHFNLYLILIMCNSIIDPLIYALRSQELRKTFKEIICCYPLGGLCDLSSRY
Method: (§2) A competitive inhibition binding assay was performed using membrane homogenates prepared from HEK-293 cells that express recombinant hMCR-1a or hMCR-4 (in each instance where the h prefix refers to human), or alternatively membrane homogenates from B16-F10 mouse melanoma cells containing endogenous murine MCR-1. In the examples that follow, all MCR-1 and MCR-4 values are for human recombinant receptors, unless otherwise noted. Assays were performed in 96 well polypropylene round-bottom plates (VWR catalog number 12777-030). Membrane homogenates were incubated with 0.1 nM [I^125]-NDP-α-MSH (Perkin Elmer) and increasing concentrations of test peptides of the present invention in buffer containing 25 mM HEPES buffer (pH 7.5) with 100 mM NaCl, 2 mM CaCl2, 2 mM MgCl2, 0.3 mM 1,10-phenanthroline, and 0.2% bovine serum albumin. After incubation for 90 minutes at 37° C., the assay mixture was filtered onto GF/B Unifilter plates (Perkin-Elmer catalog number 6005177) and washed with 3 mL of ice-cold buffer per well. Filters were air dried and 35 μL of scintillation cocktail added to each well. Plates were counted in a Microbeta counter for bound radioactivity. Non-specific binding was measured by inhibition of binding of [I^125]-NDP-α-MSH in the presence of 1 μM NDP-α-MSH. Maximal specific binding (100%) was defined as the difference in radioactivity (cpm) bound to cell membranes in the absence and presence of 1 μM NDP-α-MSH. Each assay was conducted in duplicate and the actual mean values are described, with results less than 0% reported as 0%. Ki values for peptides of the present invention were determined using Graph-Pad PRISM® curve-fitting software.
as §1

hMCR-1a = target: T3, hMCR-1a (Homo sapiens, UniProt Q01726); test: Competitive inhibition binding assay using [I125]-NDP-α-MSH, hMCR-1a membranes; conditions: HEK-293 membranes, recombinant human MCR-1, [I125]-NDP-α-MSH; read-out: MC-1 Ki (average)
T3 construct: expressed in transfected cells; host or cells: HEK-293 cells (membrane homogenates)
T3 sequence (Q01726 whole entry): as the sequence (Q01726 whole entry) above
Method: as §2, §1

SMILES | Emax (hMCR-1) [%] | pEC50 (hMCR-1) | pKi (hMCR-4) | pKi (hMCR-1a)
CCCC[C@H](NC(C)=O)C(=O)N[C@@H](C)C(=O)N[C@@H](Cc1c[nH]cn1)C(=O)N[C@H](Cc1ccccc1)C(=O)N[C@@H](CCCNC(=N)N)C(=O)N[C@@H](C)C(=O)N[C@@H](Cc1c[nH]c2ccccc12)C(N)=O [Example 9.1, Ac-Nle-Ala-His-D-Phe-Arg-Ala-Trp-NH2] (Ac-[Nle]AH[dF]RAW-NH2) | 96 | – | – | –
CCCC[C@H](NC(C)=O)C(=O)N[C@@H](C)C(=O)N[C@@H](Cc1c[nH]cn1)C(=O)N[C@H](Cc1ccccc1)C(=O)N[C@@H](CCCNC(=N)N)C(=O)N1CCC[C@H]1C(=O)N[C@@H](Cc1c[nH]c2ccccc12)C(N)=O [Example 9.2, Ac-Nle-Ala-His-D-Phe-Arg-Pro-Trp-NH2] (Ac-[Nle]AH[dF]RPW-NH2) | 78 | – | – | –
CCCC[C@H](NC(C)=O)C(=O)N[C@@H](Cc1c[nH]cn1)C(=O)N[C@H](Cc1ccccc1)C(=O)N[C@@H](CCCNC(=N)N)C(=O)N[C@@H](C)C(=O)N[C@@H](Cc1c[nH]c2ccccc12)C(N)=O [Example 9.3, Ac-Nle-His-D-Phe-Arg-Ala-Trp-NH2] (Ac-[Nle]H[dF]RAW-NH2) | 95 | 9.00 | – | –
CCCC[C@H](NC(C)=O)C(=O)N[C@@H](C)C(=O)N[C@@H](Cc1c[nH]cn1)C(=O)N[C@H](Cc1ccccc1)C(=O)N[C@@H](CCCNC(=N)N)C(=O)N(C)CC(=O)N[C@@H](Cc1c[nH]c2ccccc12)C(N)=O [Example 9.4, Ac-Nle-Ala-His-D-Phe-Arg-Sar-Trp-NH2] (Ac-[Nle]AH[dF]R[Sar]W-NH2) | 77 | 9.77 | 6.06 | 8.70
CCCC[C@H](NC(C)=O)C(=O)N[C@@H](C)C(=O)N[C@@H](Cc1c[nH]cn1)C(=O)N[C@H](Cc1ccccc1)C(=O)N[C@@H](CCCNC(=N)N)C(=O)NCC(=O)N[C@@H](Cc1c[nH]c2ccccc12)C(N)=O [Example 9.5, Ac-Nle-Ala-His-D-Phe-Arg-Gly-Trp-NH2] (Ac-[Nle]AH[dF]RGW-NH2) | 90 | – | – | –
CCCC[C@H](NC(C)=O)C(=O)N[C@@H](C)C(=O)N[C@@H](Cc1c[nH]cn1)C(=O)N[C@@H](Cc1ccccc1)C(=O)N[C@@H](CCCNC(=N)N)C(=O)N[C@@H](C)C(=O)N[C@@H](Cc1c[nH]c2ccccc12)C(N)=O [Example 9.6, Ac-Nle-Ala-His-Phe-Arg-Ala-Trp-NH2] (Ac-[Nle]AHFRAW-NH2) | 72 | 8.40 | – | –
CCCC[C@H](NC(C)=O)C(=O)N[C@@H](C)C(=O)N[C@@H](Cc1c[nH]cn1)C(=O)N[C@@H](Cc1ccccc1)C(=O)N[C@@H](CCCNC(=N)N)C(=O)NCC(=O)N[C@@H](Cc1c[nH]c2ccccc12)C(N)=O [Example 9.7, Ac-Nle-Ala-His-Phe-Arg-Gly-Trp-NH2] (Ac-[Nle]AHFRGW-NH2) | 75 | – | – | –
CCCC[C@H](NC(C)=O)C(=O)N[C@@H](Cc1c[nH]cn1)C(=O)N[C@@H](Cc1ccccc1)C(=O)N[C@@H](CCCNC(=N)N)C(=O)N[C@@H](C)C(=O)N[C@@H](Cc1c[nH]c2ccccc12)C(N)=O [Example 9.8, Ac-Nle-His-Phe-Arg-Ala-Trp-NH2] (Ac-[Nle]HFRAW-NH2) | 55 | – | – | –
CCCC[C@H](NC(C)=O)C(=O)N[C@@H](C)C(=O)N[C@@H](Cc1c[nH]cn1)C(=O)N[C@H](Cc1ccccc1)C(=O)N[C@@H](CCCNC(=N)N)C(=O)N[C@@H](C)C(=O)N[C@H](Cc1c[nH]c2ccccc12)C(N)=O [Example 9.9, Ac-Nle-Ala-His-D-Phe-Arg-Ala-D-Trp-NH2] (Ac-[Nle]AH[dF]RA[dW]-NH2) | 70 | – | 6.67 | 8.15
CCCC[C@H](NC(C)=O)C(=O)N[C@@H](C)C(=O)N[C@H](Cc1ccccc1)C(=O)N[C@@H](CCCNC(=N)N)C(=O)N[C@@H](C)C(=O)N[C@@H](Cc1c[nH]c2ccccc12)C(N)=O [Example 9.10, Ac-Nle-Ala-D-Phe-Arg-Ala-Trp-NH2] (Ac-[Nle]A[dF]RAW-NH2) | 85 | – | – | –
CCCC[C@H](NC(C)=O)C(=O)N[C@@H](C)C(=O)N[C@@H](Cc1c[nH]cn1)C(=O)N[C@H](Cc1ccccc1)C(=O)N[C@@H](CCCNC(=N)N)C(=O)N1CCC[C@@H]1C(=O)N[C@@H](Cc1c[nH]c2ccccc12)C(N)=O [Example 9.11, Ac-Nle-Ala-His-D-Phe-Arg-D-Pro-Trp-NH2] (Ac-[Nle]AH[dF]R[dP]W-NH2) | 70 | 9.00 | 5.21 | 7.85
CCCC[C@H](NC(C)=O)C(=O)N[C@@H](C)C(=O)N[C@@H](Cc1c[nH]cn1)C(=O)N[C@H](Cc1ccccc1)C(=O)N[C@@H](CCCNC(=N)N)C(=O)N1CCC[C@@H]1C(=O)N[C@H](Cc1c[nH]c2ccccc12)C(N)=O [Example 9.12, Ac-Nle-Ala-His-D-Phe-Arg-D-Pro-D-Trp-NH2] (Ac-[Nle]AH[dF]R[dP][dW]-NH2) | 72 | 8.70 | – | 7.70
CCCC[C@H](NC(C)=O)C(=O)N[C@@H](C)C(=O)N[C@@H](Cc1c[nH]cn1)C(=O)N[C@H](Cc1ccccc1)C(=O)N[C@@H](CCCNC(=N)N)C(=O)N[C@@H](C)C(=O)N[C@@H](Cc1c[nH]c2ccccc12)C(=O)O [Example 9.14, Ac-Nle-Ala-His-D-Phe-Arg-Ala-Trp-OH] (Ac-[Nle]AH[dF]RAW-OH) | 73 | – | – | 8.22
CCCC[C@H](NC(C)=O)C(=O)N[C@@H](C)C(=O)N[C@@H](Cc1c[nH]cn1)C(=O)N[C@H](Cc1ccccc1)C(=O)N[C@@H](C)C(=O)N[C@@H](C)C(=O)N[C@@H](Cc1c[nH]c2ccccc12)C(N)=O [Example 9.16, Ac-Nle-Ala-His-D-Phe-Ala-Ala-Trp-NH2] (Ac-[Nle]AH[dF]AAW-NH2) | 99 | 8.40 | – | –
CCCC[C@H](NC(C)=O)C(=O)N[C@@H](C)C(=O)N[C@@H](C)C(=O)N[C@H](Cc1ccccc1)C(=O)N[C@@H](CCCNC(=N)N)C(=O)N[C@@H](C)C(=O)N[C@@H](Cc1c[nH]c2ccccc12)C(N)=O [Example 9.17, Ac-Nle-Ala-Ala-D-Phe-Arg-Ala-Trp-NH2] (Ac-[Nle]AA[dF]RAW-NH2) | 94 | – | – | –
CCCC[C@H](NC(C)=O)C(=O)N[C@@H](C)C(=O)N[C@@H](CCCNC(=N)N)C(=O)N[C@H](Cc1ccccc1)C(=O)N[C@@H](CCCNC(=N)N)C(=O)N[C@@H](C)C(=O)N[C@@H](Cc1c[nH]c2ccccc12)C(N)=O [Example 9.18, Ac-Nle-Ala-Arg-D-Phe-Arg-Ala-Trp-NH2] (Ac-[Nle]AR[dF]RAW-NH2) | 106 | – | – | –
CCCC[C@H](NC(C)=O)C(=O)N[C@@H](C)C(=O)N[C@@H](Cc1ccccc1)C(=O)N[C@H](Cc1ccccc1)C(=O)N[C@@H](CCCNC(=N)N)C(=O)N[C@@H](C)C(=O)N[C@@H](Cc1c[nH]c2ccccc12)C(N)=O [Example 9.19, Ac-Nle-Ala-Phe-D-Phe-Arg-Ala-Trp-NH2] (Ac-[Nle]AF[dF]RAW-NH2) | 99 | 8.22 | – | 7.70
CCCC[C@H](NC(C)=O)C(=O)N[C@@H](C)C(=O)N[C@@H](CCCCN)C(=O)N[C@H](Cc1ccccc1)C(=O)N[C@@H](CCCNC(=N)N)C(=O)N[C@@H](C)C(=O)N[C@@H](Cc1c[nH]c2ccccc12)C(N)=O [Example 9.20, Ac-Nle-Ala-Lys-D-Phe-Arg-Ala-Trp-NH2] (Ac-[Nle]AK[dF]RAW-NH2) | 107 | – | – | 8.40
